Test [1] has as its target T1, HCV NS5B RdRp genotype 1b (Hepatitis C virus genotype 1b, UniProt Q9WMX2).
T1 construct: The protein was expressed with an 18 amino acid C-terminal truncation to enhance the solubility; made in house; host or cells: E. coli BL21(DE3), pET21a vector
Nature of the test: Standard HCV NS5B RdRp enzyme assay. The following applies: Table 1a; HCV NS5B RdRp genotype 1b; read-out: IC50. It counts as biochemical. In short, it runs like this:
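Radiometric SPA measuring 3H-UMP incorporation on polyA/biotin-oligo-dT12 (6 nM/180 nM), 0.29 μM total UTP. Enzyme: NS5B 1b lacking last 18 residues, 28 nM final, 30° C for 60 min in 20 mM Hepes pH 7.5, 2.5 mM MgCl2, 2% DMSO. IC50 from seven-point curves.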

Another test relates to HCV replicon cells. Put plainly: HCV replicon FRET / luciferase assay (96-well plates). It counts as cell-based. The following applies: Hepatitis C virus, Table 1a; HCV replicon; read-out: EC50. The gist of the method: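 HCV replicon cells (with or without Renilla luciferase reporter) were plated with titrated compounds at 37 °C. After Alamar blue toxicity reading, cells were lysed in reagent containing 20 μM EDANS/DABCYL NS3 protease FRET peptide and 150 mM NaCl, read kinetically at 340/490 nm, or assayed by Dual-Glo luciferase.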

Where only a bound is given, the exact number is not on record here.

T1 sequence (Q9WMX2 2420-2992): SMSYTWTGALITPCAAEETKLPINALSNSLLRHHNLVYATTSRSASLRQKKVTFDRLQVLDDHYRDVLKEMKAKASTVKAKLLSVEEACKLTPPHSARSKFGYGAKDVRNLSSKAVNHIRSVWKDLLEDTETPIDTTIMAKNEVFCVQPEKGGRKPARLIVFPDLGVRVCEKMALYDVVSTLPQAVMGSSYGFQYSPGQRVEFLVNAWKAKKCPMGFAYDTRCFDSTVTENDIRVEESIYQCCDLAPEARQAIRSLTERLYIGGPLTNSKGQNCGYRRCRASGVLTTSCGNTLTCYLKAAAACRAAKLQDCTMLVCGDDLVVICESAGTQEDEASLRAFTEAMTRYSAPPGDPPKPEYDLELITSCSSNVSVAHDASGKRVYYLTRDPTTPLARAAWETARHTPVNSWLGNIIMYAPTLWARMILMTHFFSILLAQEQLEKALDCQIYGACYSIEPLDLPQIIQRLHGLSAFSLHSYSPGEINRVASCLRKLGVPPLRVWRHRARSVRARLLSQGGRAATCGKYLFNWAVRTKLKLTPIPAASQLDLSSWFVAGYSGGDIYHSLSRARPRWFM

For `CNC(=O)c1c(-c2ccc(F)cc2)oc2ccc(-c3cccc(C(=O)NCc4cccc(F)c4)c3)cc12`, in test [1], the IC50 is < 0.25 µM. Further, the EC50 in the test on HCV replicon cells was < 0.25 µM.

For `CNC(=O)c1c(-c2ccc(F)cc2)oc2ccc(-c3cccc(C(=O)NCc4ccccc4)c3)cc12`, the IC50 in test [1] was < 0.25 µM. For the same compound, the EC50 in the test with HCV replicon cells was < 0.25 µM.

Turning to `CNC(=O)c1c(-c2ccc(F)cc2)oc2ccc(-c3cccc(C(=O)NCc4ccc(F)cc4)c3)cc12`, the IC50 in test [1] is < 0.25 µM. Besides, the EC50 with HCV replicon cells was < 0.25 µM.

For the compound `CNC(=O)c1c(-c2ccc(F)cc2)oc2ccc(-c3cccc(C(=O)NC4(CO)CCCC4)c3)cc12`, the 50% inhibitory concentration (IC50) in test [1] was < 0.25 µM. Besides, the EC50 with HCV replicon cells was < 0.25 µM.

`CNC(=O)c1c(-c2ccc(F)cc2)oc2ccc(-c3cccc(C(=O)NCc4cccc(C)c4)c3)cc12`: the half-maximal inhibitory concentration (IC50) in test [1] is < 0.25 µM. In addition, in the test on HCV replicon cells, the EC50 was < 0.25 µM.

As for `CNC(=O)c1c(-c2ccc(F)cc2)oc2ccc(-c3cccc(C(=O)NC(C)(C)c4cccc5ccccc45)c3)cc12`, in test [1], the IC50 lay within 0.25 to 1 µM. In the test with HCV replicon cells, the concentration for a half-maximal effect (EC50) is 0.25 to 1 µM.

As to `CNC(=O)c1c(-c2ccc(F)cc2)oc2ccc(-c3cccc(C(=O)Nc4nccs4)c3)cc12`, in test [1], the IC50 was < 0.25 µM. The concentration giving a half-maximal response (EC50) in the test on HCV replicon cells lay within 0.25 to 1 µM.

In the case of `CNC(=O)c1c(-c2ccc(F)cc2)oc2ccc(-c3ccccn3)cc12`, the concentration for half-maximal inhibition (IC50) in test [1] was in the range of 1 to 10 µM. The EC50 in the test with HCV replicon cells was in the range of 0.25 to 1 µM.

`CNC(=O)c1c(-c2ccc(F)cc2)oc2ccc(-c3cccc(C#N)c3)cc12`: the IC50 in test [1] is > 10 µM. Besides, in the test on HCV replicon cells, the EC50 is 0.25 to 1 µM.

Regarding `CNC(=O)c1c(-c2ccc(F)cc2)oc2ccc(-c3cccc4[nH]ccc34)cc12`, in test [1], the IC50 is > 10 µM. For the same compound, the EC50 with HCV replicon cells was in the range of 0.25 to 1 µM.

As to `CNC(=O)c1c(-c2ccc(F)cc2)oc2ccc(-c3cccc(C(=O)N(C)Cc4ccccc4)c3)cc12`, the IC50 in test [1] lay in the range of 0.25 to 1 µM. Besides, the EC50 in the test on HCV replicon cells lay in the range of 0.25 to 1 µM.

For the compound `CNC(=O)c1c(-c2ccc(F)cc2)oc2ccc(-c3cccc(C(=O)N4CCCC4c4ccccc4)c3)cc12` (stereo not shown), the half-maximal inhibitory concentration (IC50) in test [1] fell in the range of 0.25 to 1 µM. For the same compound, the EC50 in the test on HCV replicon cells fell in the range of 0.25 to 1 µM.

With `CNC(=O)c1c(-c2ccc(F)cc2)oc2ccc(-c3cccc(C(=O)N4CCC(c5ccc(F)cc5)C4)c3)cc12` (stereo not shown), in test [1], the IC50 fell in the range of 0.25 to 1 µM. Moreover, the EC50 in the test with HCV replicon cells fell in the range of 0.25 to 1 µM.

Take `CCNC(=O)C(C)(C)NC(=O)c1cccc(-c2ccc3oc(-c4ccc(F)cc4)c(C(=O)NC)c3c2)c1`: the IC50 in test [1] is 0.25 to 1 µM. For the same compound, the EC50 in the test with HCV replicon cells lay in the range of 0.25 to 1 µM.

As for `CNC(=O)c1c(-c2ccc(F)cc2)oc2ccc(-c3cccc(C(=O)NC(C)(C)C(=O)NCC#N)c3)cc12`, the IC50 in test [1] is < 0.25 µM. For the same compound, the EC50 in the test with HCV replicon cells fell in the range of 0.25 to 1 µM.

Take `C=CCNC(=O)C(C)(C)NC(=O)c1cccc(-c2ccc3oc(-c4ccc(F)cc4)c(C(=O)NC)c3c2)c1`: in test [1], the IC50 is 0.25 to 1 µM. The EC50 with HCV replicon cells was in the range of 0.25 to 1 µM.

Take `CNC(=O)c1c(-c2ccc(F)cc2)oc2ccc(-c3cc(C(=O)NCC(C)C)ccc3OC(C)C)cc12`: the IC50 in test [1] fell in the range of 0.25 to 1 µM. Moreover, the EC50 with HCV replicon cells lay in the range of 0.25 to 1 µM.

On to `CNC(=O)c1c(-c2ccc(F)cc2)oc2cc(NC(=O)COC)c(-c3cccc(C(=O)NC4(c5ccccc5)CC4)c3)cc12`, for which the IC50 in test [1] lay in the range of 0.25 to 1 µM. For the same compound, in the test with HCV replicon cells, the EC50 was 0.25 to 1 µM.

Take `CNC(=O)c1c(-c2ccc(F)cc2)oc2ccc(-c3cc(C(=O)NCC(C)C)ccc3OC3CCC3)cc12`: in test [1], the half-maximal inhibitory concentration (IC50) is > 1.39 µM. Moreover, the half-maximal effective concentration (EC50) in the test with HCV replicon cells fell in the range of 0.25 to 1 µM.

Regarding `CNC(=O)c1c(-c2ccc(F)cc2)oc2cc([N+](=O)[O-])c(-c3cc(C(=O)NCC(C)C)ccc3OC)cc12`, the IC50 in test [1] lay in the range of 0.25 to 1 µM. The EC50 in the test with HCV replicon cells fell in the range of 0.25 to 1 µM.

Consider `CNC(=O)c1c(-c2ccc(F)cc2)oc2ccc(Oc3ccc(/C=C(\NC(=O)c4ccccc4)C(=O)OC)cc3)cc12`, for which, in test [1], the IC50 was 1 to 10 µM. Also, the EC50 with HCV replicon cells is 1 to 10 µM.

On to `CNC(=O)c1c(-c2ccc(F)cc2)oc2ccc(-c3cnc(OC)nc3)cc12`, for which, in test [1], the IC50 lay in the range of 1 to 10 µM. In addition, the EC50 with HCV replicon cells lay in the range of 1 to 10 µM.

With `CNC(=O)c1c(-c2ccc(F)cc2)oc2ccc(-c3ccc(C(=O)O)cc3)cc12`, the IC50 in test [1] was 0.25 to 1 µM. In addition, in the test on HCV replicon cells, the half-maximal effective concentration (EC50) lay in the range of 1 to 10 µM.

On to `CNC(=O)c1c(-c2ccc(F)cc2)oc2ccc(-c3cccc(C(=O)NCCN(C)C)c3)cc12`, for which, in test [1], the IC50 was 1 to 10 µM. Moreover, the EC50 in the test with HCV replicon cells fell in the range of 1 to 10 µM.

For `CNC(=O)c1c(-c2ccc(F)cc2)oc2ccc(-c3ccc(/C=C/C(=O)O)cc3)cc12`, in test [1], the half-inhibitory concentration (IC50) lay within 1 to 10 µM. For the same compound, the EC50 in the test with HCV replicon cells is 1 to 10 µM.

Consider `CNC(=O)c1c(-c2ccc(F)cc2)oc2ccc(-c3cccc(NC(C)=O)c3)cc12`, for which the concentration for half-maximal inhibition (IC50) in test [1] was in the range of 1 to 10 µM. Moreover, the EC50 in the test with HCV replicon cells is 1 to 10 µM.

Turning to `CNC(=O)c1c(-c2ccc(F)cc2)oc2ccc(OCCOc3ccc(C(C)(C)C)cc3)cc12`, in test [1], the IC50 is > 10 µM. Moreover, the EC50 in the test on HCV replicon cells fell in the range of 1 to 10 µM.

For `CNC(=O)c1c(-c2ccc(F)cc2)oc2ccc(OCCCNC(=O)OC(C)(C)C)cc12`, the IC50 in test [1] lay within 1 to 10 µM. For the same compound, the concentration for a half-maximal effect (EC50) in the test with HCV replicon cells was in the range of 1 to 10 µM.

Regarding `CNC(=O)c1c(-c2ccc(F)cc2)oc2ccc(-c3ccc(F)cc3OCc3ccccc3)cc12`, in test [1], the IC50 is > 10 µM. The EC50 in the test with HCV replicon cells was 1 to 10 µM.

As for `CNC(=O)c1c(-c2ccc(F)cc2)oc2ccc(-c3ccc(OC4CCCCO4)cc3)cc12` (stereo not shown), the IC50 in test [1] was > 10 µM. Further, the EC50 in the test with HCV replicon cells is 1 to 10 µM.

As for `CNC(=O)c1c(-c2ccc(F)cc2)oc2ccc(-c3cnc(OC)c(F)c3)cc12`, the half-maximal inhibitory concentration (IC50) in test [1] was > 10 µM. Further, the EC50 with HCV replicon cells was in the range of 1 to 10 µM.

Take `CNC(=O)c1c(-c2ccc(F)cc2)oc2ccc(-c3ccc(S(=O)(=O)NC)cc3)cc12`: the IC50 in test [1] was > 10 µM. In the test on HCV replicon cells, the EC50 lay within 1 to 10 µM.

On to `CNC(=O)c1c(-c2ccc(F)cc2)oc2ccc(-c3cc(Cl)cnc3F)cc12`, for which the IC50 in test [1] is > 10 µM. Further, the EC50 in the test on HCV replicon cells was 1 to 10 µM.

Turning to `CNC(=O)c1c(-c2ccc(F)cc2)oc2ccc(-c3ccc(C(=O)N4CCCC4)cc3)cc12`, the half-inhibitory concentration (IC50) in test [1] lay in the range of 1 to 10 µM. In addition, the EC50 in the test with HCV replicon cells fell in the range of 1 to 10 µM.

As for `CNC(=O)c1c(-c2ccc(F)cc2)oc2ccc(-c3cc(CO)ccc3Cl)cc12`, in test [1], the IC50 was > 10 µM. Besides, the EC50 with HCV replicon cells lay within 1 to 10 µM.

As for `CC(C)Oc1cc2c(-c3ncn[nH]3)c(-c3ccc(F)cc3)oc2cc1N(C)S(C)(=O)=O`, the IC50 in test [1] is 0.25 to 1 µM. Moreover, in the test on HCV replicon cells, the EC50 was 1 to 10 µM.

Take `CNC(=O)c1c(-c2ccc(F)cc2)oc2ccc(-c3cccc(C(=O)OC(C)(C)C)c3)cc12`: the IC50 in test [1] was 1 to 10 µM. In the test with HCV replicon cells, the EC50 lay in the range of 1 to 10 µM.

As for `CCN(CC)C(=O)c1cccc(-c2ccc3oc(-c4ccc(F)cc4)c(C(=O)NC)c3c2)c1`, in test [1], the IC50 is 1 to 10 µM. Besides, the EC50 in the test on HCV replicon cells fell in the range of 1 to 10 µM.

Consider `CNC(=O)c1c(-c2ccc(F)cc2)oc2ccc(-c3cccc(C(=O)N(C)C)c3)cc12`, for which, in test [1], the IC50 lay within 1 to 10 µM. In the test with HCV replicon cells, the EC50 was 1 to 10 µM.

In the case of `CNC(=O)c1c(-c2ccc(F)cc2)oc2ccc(-c3cccc(/C=C/C(=O)O)c3)cc12`, the half-maximal inhibitory concentration (IC50) in test [1] fell in the range of 0.25 to 1 µM. In the test on HCV replicon cells, the half-maximal effective concentration (EC50) fell in the range of 1 to 10 µM.

For the compound `CNC(=O)c1c(-c2ccc(F)cc2)oc2ccc(-c3cccc(C(=O)N4CCC(C)CC4)c3)cc12`, the IC50 in test [1] lay within 1 to 10 µM. In addition, the EC50 in the test with HCV replicon cells fell in the range of 1 to 10 µM.

Consider `CNC(=O)c1c(-c2ccc(F)cc2)oc2ccc(-c3cccc(C(=O)N4CCCCC4)c3)cc12`, for which the IC50 in test [1] was 0.25 to 1 µM. The EC50 with HCV replicon cells fell in the range of 1 to 10 µM.

As to `CNC(=O)c1c(-c2ccc(F)cc2)oc2ccc(-c3cccc(C(=O)NCc4ccccc4O)c3)cc12`, the IC50 in test [1] was 0.25 to 1 µM. Also, in the test with HCV replicon cells, the 50% effective concentration (EC50) was 1 to 10 µM.

On to `CNC(=O)c1c(-c2ccc(F)cc2)oc2ccc(-c3cccc(C(=O)N4CCCC(O)C4)c3)cc12` (stereo not shown), for which, in test [1], the IC50 was 1 to 10 µM. For the same compound, in the test with HCV replicon cells, the EC50 lay within 1 to 10 µM.

The values above are taken from patent US8309558B2, “Compounds for the treatment of hepatitis C” (Bristol-Myers Squibb Company, priority 2008, dated 2012).
